A value given as a limit tells only on which side of the number the result lay.

The target in the assay is T1, full-length MALT1 protein His-MALT1(1-824) (Homo sapiens, UniProt Q9UDY8).
T1 construct: full-length MALT1 protein His-MALT1(1-824); His (N); made in house; host or cells: baculovirus-infected insect cells
T1 sequence (Q9UDY8 1-824): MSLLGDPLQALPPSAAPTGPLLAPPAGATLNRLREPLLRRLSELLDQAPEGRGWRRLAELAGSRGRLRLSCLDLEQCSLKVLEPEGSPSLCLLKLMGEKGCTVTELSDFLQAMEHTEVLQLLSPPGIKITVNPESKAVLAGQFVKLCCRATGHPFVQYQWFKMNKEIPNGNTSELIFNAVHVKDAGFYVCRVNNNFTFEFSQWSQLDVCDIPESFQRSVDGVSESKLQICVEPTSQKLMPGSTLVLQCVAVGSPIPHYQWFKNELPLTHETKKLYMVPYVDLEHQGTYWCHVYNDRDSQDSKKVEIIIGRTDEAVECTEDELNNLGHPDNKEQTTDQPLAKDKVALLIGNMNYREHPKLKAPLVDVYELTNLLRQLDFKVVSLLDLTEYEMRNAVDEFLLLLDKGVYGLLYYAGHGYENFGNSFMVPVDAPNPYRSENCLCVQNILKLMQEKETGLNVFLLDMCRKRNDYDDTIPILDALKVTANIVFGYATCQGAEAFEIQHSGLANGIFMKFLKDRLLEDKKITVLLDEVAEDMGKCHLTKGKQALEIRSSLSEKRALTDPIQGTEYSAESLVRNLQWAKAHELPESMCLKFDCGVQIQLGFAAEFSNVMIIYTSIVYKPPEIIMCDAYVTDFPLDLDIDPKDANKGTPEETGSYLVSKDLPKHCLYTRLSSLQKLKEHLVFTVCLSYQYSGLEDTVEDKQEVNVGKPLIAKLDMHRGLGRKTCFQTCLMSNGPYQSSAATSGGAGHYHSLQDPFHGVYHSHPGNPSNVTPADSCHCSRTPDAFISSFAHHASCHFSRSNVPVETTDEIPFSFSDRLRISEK
Briefly: MALT1 protease assay (Ac-LRSR-AMC tetrapeptide substrate, fluorescence). In kind it is biochemical. Particulars: 1 nM MALT1, 25 μM Ac-LRSR-AMC, 2 h pre-incubation, 8 hr incubation at RT. In a few lines: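 Full-length His-MALT1(1-824) from baculovirus-infected insect cells (1 nM) was pre-incubated 2 h at RT with compounds (0.1% DMSO), then 25 μM Ac-LRSR-AMC added in 50 mM Tris pH 7.5, 600 mM sodium citrate, 1 mM DTT, 1 mM EDTA, 0.05% BSA. Fluorescence (ex 355/em 460 nm) read after 8 h at RT; IC50 by non-linear regression of % remaining activity.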
The term IC50 denotes the concentration that inhibits the measured activity by half. High values mean lower potency, low ones higher potency. Regarding `CC(F)(F)n1ccc([C@]2(C)C[C@@H](C(=O)Nc3cnc(-c4ncccn4)c(C(F)(F)F)c3)c3cnc4cc(F)nn4c32)n1` (single isomer, unassigned) [Example 165, (trans)-8-(1-(1,1-difluoroethyl)-1H-pyrazol-3-yl)-2-fluoro-8-methyl-N-(6-(pyrimidin-2-yl)-5-(trifluoromethyl)pyridin-3-yl)-7,8-dihydro-6H-cyclopenta[e]pyrazolo[1,5-a]pyrimidine-6-carboxamide], the IC50 is at least 1000 nM.
`CC(F)(F)n1ccc([C@]2(C)C[C@H](C(=O)Nc3cnc(-c4ncccn4)c(C(F)(F)F)c3)c3cnc4cc(F)nn4c32)n1` (single isomer, unassigned) [Example 166, (cis)-8-(1-(1,1-difluoroethyl)-1H-pyrazol-3-yl)-2-fluoro-8-methyl-N-(6-(pyrimidin-2-yl)-5-(trifluoromethyl)pyridin-3-yl)-7,8-dihydro-6H-cyclopenta[e]pyrazolo[1,5-a]pyrimidine-6-carboxamide] registered an IC50 of 100 to 1000 nM.
In the case of `CC(F)(F)n1ccc([C@@]2(C)C[C@@H](C(=O)Nc3cnc(-c4ncccn4)c(C(F)(F)F)c3)c3cnc4cc(F)nn4c32)n1` (single isomer, unassigned) [Example 167, (cis)-8-(1-(1,1-difluoroethyl)-1H-pyrazol-3-yl)-2-fluoro-8-methyl-N-(6-(pyrimidin-2-yl)-5-(trifluoromethyl)pyridin-3-yl)-7,8-dihydro-6H-cyclopenta[e]pyrazolo[1,5-a]pyrimidine-6-carboxamide], the IC50 lay in the range of 100 to 1000 nM.
On to `CC(F)(F)n1ccc([C@@]2(C)C[C@H](C(=O)Nc3cnc(-c4ncccn4)c(Cl)c3)c3cnc4cc(F)nn4c32)n1` (single isomer, unassigned) [Example 168], for which the IC50 lay within 10 to 100 nM.
The same measure for `CC(F)(F)n1ccc([C@]2(C)C[C@@H](C(=O)Nc3cnc(-c4ncccn4)c(Cl)c3)c3cnc4cc(F)nn4c32)n1` (single isomer, unassigned) [Example 169]: at least 1000 nM; for `C[C@]1(c2ccn(C(F)F)n2)C[C@H](C(=O)Nc2cnc(-c3ncccn3)c(C(F)(F)F)c2)c2cnc3cc(Cl)nn3c21` (single isomer, unassigned) [Example 171]: under 10 nM.
Regarding `C[C@@]1(c2ccn(C(F)F)n2)C[C@@H](C(=O)Nc2cnc(-c3ncccn3)c(C(F)(F)F)c2)c2cnc3cc(Cl)nn3c21` (single isomer, unassigned) [Example 172], the concentration for half-maximal inhibition (IC50) was at least 1000 nM.
The same measure for `C[C@@]1(c2ccn(C(F)F)n2)C[C@H](C(=O)Nc2cnc(-c3ncccn3)c(C(F)(F)F)c2)c2cnc3cc(Cl)nn3c21` (single isomer, unassigned) [Example 173]: 10 to 100 nM; for `C[C@]1(c2ccn(C(F)F)n2)C[C@@H](C(=O)Nc2cnc(-c3ncccn3)c(C(F)(F)F)c2)c2cnc3cc(Cl)nn3c21` (single isomer, unassigned) [Example 174]: 100 to 1000 nM.
As to `C[C@]1(c2cn(C(F)F)nn2)C[C@H](C(=O)Nc2cnc(-n3nccn3)c(Cl)c2)c2cnc3cc(F)nn3c21` (single isomer, unassigned) [Example 175], the IC50 lay within 10 to 100 nM.
`C[C@@]1(c2cn(C(F)F)nn2)C[C@@H](C(=O)Nc2cnc(-n3nccn3)c(Cl)c2)c2cnc3cc(F)nn3c21` (single isomer, unassigned) [Example 176] gave an IC50 of at least 1000 nM.
The same measure for `C[C@]1(c2cnn(C(F)F)n2)C[C@H](C(=O)Nc2cnc(-n3nccn3)c(Cl)c2)c2cnc3cc(F)nn3c21` (single isomer, unassigned) [Example 177]: under 10 nM; for `C[C@@]1(c2cnn(C(F)F)n2)C[C@@H](C(=O)Nc2cnc(-n3nccn3)c(Cl)c2)c2cnc3cc(F)nn3c21` (single isomer, unassigned) [Example 178]: 100 to 1000 nM; for `COc1cc(NC(=O)[C@H]2C[C@](C)(c3ccn(C(F)F)n3)c3c2cnc2cc(F)nn32)cnc1-c1ncccn1` (single isomer, unassigned) [Example 179]: at least 1000 nM.
As to `COc1cc(NC(=O)[C@@H]2C[C@@](C)(c3ccn(C(F)F)n3)c3c2cnc2cc(F)nn32)cnc1-c1ncccn1` (single isomer, unassigned) [Example 180], the concentration for half-maximal inhibition (IC50) lay within 100 to 1000 nM.
With `COc1cc(NC(=O)[C@H]2C[C@@](C)(c3ccn(C(F)F)n3)c3c2cnc2cc(F)nn32)cnc1-c1ncccn1` (single isomer, unassigned) [Example 181], the IC50 is at least 1000 nM.
The same measure for `COc1cc(NC(=O)[C@@H]2C[C@](C)(c3ccn(C(F)F)n3)c3c2cnc2cc(F)nn32)cnc1-c1ncccn1` (single isomer, unassigned) [Example 182]: at least 1000 nM.
Under `Cc1cc(NC(=O)C2CC(C)(c3ccn(C(F)F)n3)c3c2cnc2cc(F)nn32)cnc1-c1ncccn1` (single isomer, unassigned) [Example 183] stands 10 to 100 nM.
`Cc1cc(NC(=O)C2CC(C)(c3ccn(C(F)F)n3)c3c2cnc2cc(F)nn32)cnc1-c1ncccn1` (single isomer, unassigned) [Example 184] yielded an IC50 of at least 1000 nM.
The same measure for `C[C@]1(c2ccn(C(F)F)n2)C[C@H](C(=O)Nc2ccc(-c3ncccn3)c(C(F)(F)F)c2)c2cnc3cc(F)nn3c21` (single isomer, unassigned) [Example 185]: under 10 nM.
`C[C@@]1(c2ccn(C(F)F)n2)C[C@@H](C(=O)Nc2ccc(-c3ncccn3)c(C(F)(F)F)c2)c2cnc3cc(F)nn3c21` (single isomer, unassigned) [Example 186] gave an IC50 of at least 1000 nM.
Molecule `C[C@@]1(c2ccn(C(F)F)n2)C[C@H](C(=O)Nc2ccc(-c3ncccn3)c(C(F)(F)F)c2)c2cnc3cc(F)nn3c21` (single isomer, unassigned) [Example 187] came in with an IC50 of 10 to 100 nM.
The same measure for `C[C@]1(c2ccn(C(F)F)n2)C[C@@H](C(=O)Nc2ccc(-c3ncccn3)c(C(F)(F)F)c2)c2cnc3cc(F)nn3c21` (single isomer, unassigned) [Example 188]: 100 to 1000 nM; for `C[C@]1(c2ccn(C(F)F)n2)C[C@H](C(=O)Nc2ccc(-c3ncccn3)c(Cl)c2)c2cnc3cc(F)nn3c21` (single isomer, unassigned) [Example 189]: 10 to 100 nM; for `C[C@@]1(c2ccn(C(F)F)n2)C[C@@H](C(=O)Nc2ccc(-c3ncccn3)c(Cl)c2)c2cnc3cc(F)nn3c21` (single isomer, unassigned) [Example 190]: at least 1000 nM.
Under `C[C@@]1(c2ccn(C(F)F)n2)C[C@H](C(=O)Nc2ccc(-c3ncccn3)c(Cl)c2)c2cnc3cc(F)nn3c21` (single isomer, unassigned) [Example 191] stands at least 1000 nM.
The molecule `C[C@]1(c2ccn(C(F)F)n2)C[C@@H](C(=O)Nc2ccc(-c3ncccn3)c(Cl)c2)c2cnc3cc(F)nn3c21` (single isomer, unassigned) [Example 192] showed an IC50 of 100 to 1000 nM.
As to `CC1(c2ccn(C(F)F)n2)CC(C(=O)Nc2cnc(-c3ncccn3)c(C(F)F)c2)c2cnc3cc(F)nn3c21` (single isomer, unassigned) [Example 193], the IC50 was 10 to 100 nM.
As to `CC1(c2ccn(C(F)F)n2)CC(C(=O)Nc2cnc(-c3ncccn3)c(C(F)F)c2)c2cnc3cc(F)nn3c21` (single isomer, unassigned) [Example 194], the IC50 was at least 1000 nM.

The values are drawn from patent US20260049085A1, “CYCLIC COMPOUNDS AND METHODS OF USING SAME” (SCHRÖDINGER, INC., priority 2022, published 2026).
